According to ChEMBL document CHEMBL6153090:
pEC50, pKi: −log10 of the molar value. The source made the active and inactive calls. The calls are words filed in the database; no cut-off is given here.

What was measured:
[1] = target: 5-hydroxytryptamine receptor 2B (Homo sapiens, UniProt P41595); test: Displacement of [3H]-LSD from human 5-HT2B receptor at 10 uM by cell-based radioligand binding assay
[2] = target: Kappa-type opioid receptor (Homo sapiens, UniProt P41145); test: Displacement of [3H]-U69593 human KOR receptor at 10 uM by cell-based radioligand binding assay
D(2) dopamine receptor = D(2) dopamine receptor (Homo sapiens, UniProt P14416); test: Displacement of [3H]-N-Methylspiperone from human D2 receptor at 10 uM by cell-based radioligand binding assay
[3] = target: Sigma non-opioid intracellular receptor 1 (Homo sapiens, UniProt Q99720); test: Displacement of [3H]-pentazocine from human Sigma 1 receptor at 10 uM by cell-based radioligand binding assay
[4] = target: Sigma intracellular receptor 2 (Homo sapiens, UniProt Q5BJF2); test: Displacement of [3H]-pentazocine from human Sigma 2 receptor at 10 uM by cell-based radioligand binding assay
Histamine H1 receptor = Histamine H1 receptor (Homo sapiens, UniProt P35367); test: Binding affinity to H1 receptor (unknown origin) assessed as inhibition constant
Cannabinoid receptor 1 [5] = target: T1, Cannabinoid receptor 1 (Homo sapiens, UniProt P21554); test: Agonist activity at CB1 receptor in MDA-MB-231 cells at 300 uM by FLIPR assay; format: functional, cell-based
D(3) dopamine receptor = D(3) dopamine receptor (Homo sapiens, UniProt P35462); test: Displacement of [3H]-N-Methylspiperone from human D3 receptor at 10 uM by cell-based radioligand binding assay
D(4) dopamine receptor = target: T2, D(4) dopamine receptor (Homo sapiens, UniProt P21917); test: Displacement of [3H]-N-methylspiperone from human D4 receptor at 10 uM by cell-based radioligand binding assay
T2 sequence (P21917 whole entry): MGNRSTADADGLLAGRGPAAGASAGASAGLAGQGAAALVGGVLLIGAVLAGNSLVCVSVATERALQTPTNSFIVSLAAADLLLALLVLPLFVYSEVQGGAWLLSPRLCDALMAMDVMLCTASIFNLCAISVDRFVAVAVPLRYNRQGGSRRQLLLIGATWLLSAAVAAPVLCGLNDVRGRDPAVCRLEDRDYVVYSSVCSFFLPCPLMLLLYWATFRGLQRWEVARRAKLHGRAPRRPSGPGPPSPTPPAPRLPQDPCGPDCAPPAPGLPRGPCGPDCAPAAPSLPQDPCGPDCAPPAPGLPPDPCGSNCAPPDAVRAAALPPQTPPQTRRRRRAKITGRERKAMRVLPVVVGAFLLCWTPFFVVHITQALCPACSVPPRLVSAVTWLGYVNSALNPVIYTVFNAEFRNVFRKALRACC

[6] = target: Sodium-dependent noradrenaline transporter (Homo sapiens, UniProt P23975); test: Binding affinity to NET receptor (unknown origin) assessed as inhibition constant
[7] = Activation of GIRK channel (unknown origin) assessed as increase in fluorescence analysis; parameters: species or system Homo sapiens
Translocator protein = Translocator protein (Homo sapiens, UniProt P30536); test: Displacement of [3H]-PK11195 from human PBR receptor at 10 uM by cell-based radioligand binding assay
Cannabinoid receptor 1 [8] = target: T1, Cannabinoid receptor 1; test: Agonist activity at CB1 receptor in human MDA-MB-231 cells by FLIPR assay; format: functional, cell-based
Cannabinoid receptor 1 [9] = target: T1, Cannabinoid receptor 1; test: Agonist activity at CB1 receptor in MDA-MB-231 cells at 100 to 300 uM by FLIPR assay; format: functional, cell-based; details: filed as agonist, dose 100-300 µM

Chain of 5-hydroxytryptamine receptor 2B (P41595 whole entry): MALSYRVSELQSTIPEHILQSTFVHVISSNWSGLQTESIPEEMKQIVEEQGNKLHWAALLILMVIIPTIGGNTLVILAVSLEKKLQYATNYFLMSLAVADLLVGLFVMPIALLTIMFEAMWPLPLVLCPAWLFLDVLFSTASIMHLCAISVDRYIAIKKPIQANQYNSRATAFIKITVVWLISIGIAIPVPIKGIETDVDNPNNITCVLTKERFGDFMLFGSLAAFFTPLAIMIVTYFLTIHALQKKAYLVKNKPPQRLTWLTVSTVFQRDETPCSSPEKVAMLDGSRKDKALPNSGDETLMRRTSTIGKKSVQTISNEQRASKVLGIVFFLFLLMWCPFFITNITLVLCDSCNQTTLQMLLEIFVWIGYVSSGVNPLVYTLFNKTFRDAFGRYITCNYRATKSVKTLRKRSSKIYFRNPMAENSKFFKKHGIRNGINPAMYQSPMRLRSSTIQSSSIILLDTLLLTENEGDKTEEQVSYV
Chain of D(2) dopamine receptor (P14416 whole entry): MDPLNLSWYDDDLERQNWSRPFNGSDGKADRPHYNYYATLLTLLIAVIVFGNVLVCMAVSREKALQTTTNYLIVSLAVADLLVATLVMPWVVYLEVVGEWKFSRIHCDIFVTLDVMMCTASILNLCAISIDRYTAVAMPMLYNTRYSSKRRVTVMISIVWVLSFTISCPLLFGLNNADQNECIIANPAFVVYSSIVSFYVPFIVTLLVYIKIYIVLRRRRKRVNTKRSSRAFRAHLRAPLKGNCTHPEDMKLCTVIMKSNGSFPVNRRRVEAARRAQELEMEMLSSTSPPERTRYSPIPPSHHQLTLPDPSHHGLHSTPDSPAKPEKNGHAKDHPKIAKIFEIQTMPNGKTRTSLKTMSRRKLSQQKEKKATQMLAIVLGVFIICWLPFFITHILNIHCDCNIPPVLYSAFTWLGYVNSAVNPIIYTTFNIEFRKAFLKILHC
T1 sequence (P21554 whole entry): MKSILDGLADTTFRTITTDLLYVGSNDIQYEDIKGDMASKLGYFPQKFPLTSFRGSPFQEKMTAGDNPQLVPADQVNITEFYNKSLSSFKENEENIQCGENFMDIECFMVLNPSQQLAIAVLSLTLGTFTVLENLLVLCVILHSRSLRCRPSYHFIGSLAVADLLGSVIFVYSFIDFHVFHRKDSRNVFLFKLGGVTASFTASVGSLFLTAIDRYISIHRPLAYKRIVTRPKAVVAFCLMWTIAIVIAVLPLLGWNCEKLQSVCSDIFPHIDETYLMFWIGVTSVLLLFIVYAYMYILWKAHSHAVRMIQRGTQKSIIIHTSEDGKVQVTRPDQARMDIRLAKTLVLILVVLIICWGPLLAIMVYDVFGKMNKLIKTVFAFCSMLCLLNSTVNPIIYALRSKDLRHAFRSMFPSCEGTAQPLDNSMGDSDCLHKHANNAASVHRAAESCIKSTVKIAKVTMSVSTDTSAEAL
Chain of Sigma intracellular receptor 2 (Q5BJF2 whole entry): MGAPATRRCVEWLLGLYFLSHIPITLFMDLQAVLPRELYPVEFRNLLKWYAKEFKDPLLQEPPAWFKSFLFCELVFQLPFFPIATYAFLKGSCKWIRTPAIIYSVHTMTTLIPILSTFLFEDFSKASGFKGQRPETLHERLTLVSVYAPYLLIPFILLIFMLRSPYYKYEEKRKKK
Chain of Translocator protein (P30536 whole entry): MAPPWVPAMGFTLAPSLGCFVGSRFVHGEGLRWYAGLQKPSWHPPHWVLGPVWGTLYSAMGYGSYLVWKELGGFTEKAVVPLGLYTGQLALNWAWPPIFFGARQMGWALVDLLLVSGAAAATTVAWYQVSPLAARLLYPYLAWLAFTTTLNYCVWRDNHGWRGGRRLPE
Chain of Sigma non-opioid intracellular receptor 1 (Q99720 whole entry): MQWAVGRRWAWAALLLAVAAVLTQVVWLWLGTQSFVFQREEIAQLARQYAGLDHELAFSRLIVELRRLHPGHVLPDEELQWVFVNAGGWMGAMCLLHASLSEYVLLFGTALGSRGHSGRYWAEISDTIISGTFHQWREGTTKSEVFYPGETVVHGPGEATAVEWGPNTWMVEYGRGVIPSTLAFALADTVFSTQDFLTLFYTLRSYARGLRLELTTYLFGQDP
Chain of Kappa-type opioid receptor (P41145 whole entry): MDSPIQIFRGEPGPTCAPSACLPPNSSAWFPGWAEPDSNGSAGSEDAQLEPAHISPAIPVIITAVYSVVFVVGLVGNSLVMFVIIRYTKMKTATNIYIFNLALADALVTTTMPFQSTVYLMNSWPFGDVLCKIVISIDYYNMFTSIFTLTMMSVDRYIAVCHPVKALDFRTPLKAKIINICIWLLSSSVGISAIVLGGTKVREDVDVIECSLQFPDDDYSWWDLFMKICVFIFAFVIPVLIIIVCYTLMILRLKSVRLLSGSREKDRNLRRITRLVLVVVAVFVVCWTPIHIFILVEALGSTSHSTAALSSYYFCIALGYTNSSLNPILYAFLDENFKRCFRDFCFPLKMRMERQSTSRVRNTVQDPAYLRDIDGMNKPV
Chain of Sodium-dependent noradrenaline transporter (P23975 whole entry): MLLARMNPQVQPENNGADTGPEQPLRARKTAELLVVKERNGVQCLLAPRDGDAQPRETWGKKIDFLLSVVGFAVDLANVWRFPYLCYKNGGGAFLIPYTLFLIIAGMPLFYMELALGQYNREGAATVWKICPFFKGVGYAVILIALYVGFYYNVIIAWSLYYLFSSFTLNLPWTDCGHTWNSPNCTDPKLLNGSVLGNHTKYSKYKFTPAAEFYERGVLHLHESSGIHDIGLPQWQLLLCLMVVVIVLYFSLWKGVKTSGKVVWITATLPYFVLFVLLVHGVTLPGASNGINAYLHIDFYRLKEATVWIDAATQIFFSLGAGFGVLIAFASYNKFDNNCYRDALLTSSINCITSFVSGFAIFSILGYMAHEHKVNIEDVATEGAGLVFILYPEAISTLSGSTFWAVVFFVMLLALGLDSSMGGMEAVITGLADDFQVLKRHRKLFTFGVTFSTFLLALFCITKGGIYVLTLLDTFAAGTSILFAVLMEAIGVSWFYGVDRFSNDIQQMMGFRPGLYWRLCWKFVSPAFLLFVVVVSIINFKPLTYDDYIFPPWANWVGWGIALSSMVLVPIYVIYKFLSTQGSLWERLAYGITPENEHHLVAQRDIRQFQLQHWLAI
Chain of Histamine H1 receptor (P35367 whole entry): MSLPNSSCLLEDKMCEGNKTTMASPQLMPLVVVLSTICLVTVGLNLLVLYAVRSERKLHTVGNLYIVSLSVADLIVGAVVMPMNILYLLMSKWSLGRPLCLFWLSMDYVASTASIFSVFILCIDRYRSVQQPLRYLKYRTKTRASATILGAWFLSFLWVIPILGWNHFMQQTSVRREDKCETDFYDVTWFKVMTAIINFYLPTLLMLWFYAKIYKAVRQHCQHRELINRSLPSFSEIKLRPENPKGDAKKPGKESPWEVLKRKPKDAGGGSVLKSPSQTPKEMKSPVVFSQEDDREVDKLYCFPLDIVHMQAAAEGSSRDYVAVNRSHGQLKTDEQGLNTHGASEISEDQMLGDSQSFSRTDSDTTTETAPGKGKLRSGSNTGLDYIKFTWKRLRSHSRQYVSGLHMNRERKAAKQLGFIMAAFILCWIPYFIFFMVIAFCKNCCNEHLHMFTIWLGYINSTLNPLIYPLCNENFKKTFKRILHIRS
Chain of D(3) dopamine receptor (P35462 whole entry): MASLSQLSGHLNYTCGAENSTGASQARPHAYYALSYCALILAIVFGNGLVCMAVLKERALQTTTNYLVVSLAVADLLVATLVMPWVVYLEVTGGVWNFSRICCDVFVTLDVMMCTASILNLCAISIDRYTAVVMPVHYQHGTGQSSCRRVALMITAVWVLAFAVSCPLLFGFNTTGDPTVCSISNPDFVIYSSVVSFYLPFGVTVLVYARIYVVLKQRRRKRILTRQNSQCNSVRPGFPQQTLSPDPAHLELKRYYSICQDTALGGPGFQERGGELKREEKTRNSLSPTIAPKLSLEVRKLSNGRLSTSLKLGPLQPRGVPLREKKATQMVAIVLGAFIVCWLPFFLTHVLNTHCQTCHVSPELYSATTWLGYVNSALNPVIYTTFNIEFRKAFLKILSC

Row | SMILES | pKi [1] | pKi [4] | also measured
1 | C=C(C)[C@@H]1CCC(C)=C[C@H]1c1c(O)cc(CCCCC)cc1OCCCCCCCCCCCCOc1cc(CCCCC)cc(O)c1[C@@H]1C=C(C)CC[C@H]1C(=C)C | 5.62 |  | pKi [2]: 5.77; pKi (D(2) dopamine receptor): < 5.00
2 | C=C(C)[C@H]1CCC(C)=C[C@@H]1c1c(O)cc(CCCCC)cc1OCCCCCCCCOc1cc(CCCCC)cc(O)c1[C@@H]1C=C(C)CC[C@H]1C(=C)C | 5.35 | 5.72 | pKi [3]: 5.72
3 | C=C(C)[C@H]1CCC(C)=C[C@@H]1c1c(O)cc(CCCCC)cc1OCCCCOc1cc(CCCCC)cc(O)c1[C@@H]1C=C(C)CC[C@H]1C(=C)C |  | 5.26 | 
4 | C=C(C)[C@@H]1CCC(C)=C[C@H]1c1c(O)cc(CCCCC)cc1OCCCCCCCOc1cc(CCCCC)cc(O)c1[C@@H]1C=C(C)CC[C@H]1C(=C)C | 5.74 |  | pKi (D(2) dopamine receptor): 6.22
5 | C=C(C)[C@H]1CCC(C)=C[C@@H]1c1c(O)cc(CCCCC)cc1OCCCCCOc1cc(CCCCC)cc(O)c1[C@@H]1C=C(C)CC[C@H]1C(=C)C | 5.68 | 5.16 | 
6 | C=C(C)[C@@H]1CCC(C)=C[C@H]1c1c(OC)cc(CCCCC)cc1OCCCCCCCCOc1cc(CCCCC)cc(OC)c1[C@@H]1C=C(C)CC[C@H]1C(=C)C | < 5.00 | 5.57 | 
7 | C=C(C)[C@@H]1CCC(C)=C[C@H]1c1c(OC)cc(CCCCC)cc1OCCCCOc1cc(CCCCC)cc(OC)c1[C@@H]1C=C(C)CC[C@H]1C(=C)C |  |  | pKi (Histamine H1 receptor): 6.22
8 | C=C(C)[C@H]1CCC(C)=C[C@@H]1c1c(O)cc(CCCCC)cc1OCCOc1cc(CCCCC)cc(O)c1[C@@H]1C=C(C)CC[C@H]1C(=C)C | 5.77 | 6.10 | 
9 | C=C(C)[C@@H]1CCC(C)=C[C@H]1c1c(OC)cc(CCCCC)cc1OCCCCCCOc1cc(CCCCC)cc(OC)c1[C@@H]1C=C(C)CC[C@H]1C(=C)C | 5.06 | 5.26 | 
10 | C=C(C)[C@@H]1CCC(C)=C[C@H]1c1c(O)cc(CCCCC)cc1O |  |  | Activity (Cannabinoid receptor 1 [5]): inactive
11 | C=C(C)[C@@H]1CCC(C)=C[C@H]1c1c(O)cc(CCCCC)c2c1OCC2 | 5.48 |  | pKi (D(3) dopamine receptor): 6.40; pKi (D(4) dopamine receptor): 6.30; pKi [3]: 5.74; pKi (D(2) dopamine receptor): 6.40; pKi [6]: 5.24
12 | C=C(C)[C@H]1CCC(C)=C[C@@H]1c1c(O)cc(CCCCC)cc1OCCCCCCOc1cc(CCCCC)cc(O)c1[C@@H]1C=C(C)CC[C@H]1C(=C)C |  | 6.15 | 
13 | C=C(C)[C@@H]1CCC(C)=C[C@H]1c1c(OC)cc(CCCCC)cc1OCCOCCOCCOCCOc1cc(CCCCC)cc(OC)c1[C@@H]1C=C(C)CC[C@H]1C(=C)C |  | 5.09 | 
14 | Cn1ccc2cc3c(cc21)CCN3C(=O)Nc1cccnc1 | 8.33 |  | 
15 | Cc1c(C(=O)c2cccc3ccccc23)c2cccc3c2n1[C@H](CN1CCOCC1)CO3 [WIN-552122] |  |  | pEC50 [7]: 4.88
16 | C=C(C)[C@H]1CCC(C)=C[C@@H]1c1c(OC)cc(CCCCC)cc1OCCCCCCCCCCCCOc1cc(CCCCC)cc(OC)c1[C@H]1C=C(C)CC[C@@H]1C(=C)C | 5.18 |  | pKi (Translocator protein): 6.05
17 | C=C(C)[C@H]1CCC(C)=C[C@@H]1c1c(OC)cc(CCCCC)cc1OCCCCCCCOc1cc(CCCCC)cc(OC)c1[C@H]1C=C(C)CC[C@@H]1C(=C)C |  | 5.33 | 
18 | C=C(C)[C@@H]1CCC(C)=C[C@H]1c1c(OC)cc(CCCCC)cc1OCCCCCOc1cc(CCCCC)cc(OC)c1[C@@H]1C=C(C)CC[C@H]1C(=C)C |  |  | pEC50 (Cannabinoid receptor 1 [8]): 4.40; Activity (Cannabinoid receptor 1 [9]): Active
19 | C=C(C)[C@@H]1CCC(C)=C[C@H]1c1c(OC)cc(CCCCC)cc1OCCCOc1cc(CCCCC)cc(OC)c1[C@@H]1C=C(C)CC[C@H]1C(=C)C |  | 5.47 | pEC50 (Cannabinoid receptor 1 [8]): 4.37; pKi (Translocator protein): 5.57; Activity (Cannabinoid receptor 1 [9]): Active
